Laboratory results reported in patent US20200371122A1, “BIOMARKER FOR SENESCENT CELLS” (Buck Institute for Research on Aging, priority 2017, published 2020).

Tests used:
IMR-90 fibroblasts = assay: Induction of senescence in non-senescent cells by prostaglandins or 5-LOX pathway products (EdU, SA-B-gal, p21, immunoblot); type: cell-based, human
Protocol: RNA was extracted from cells or tissues using commercially available kits (Isolate II—Bioline for cells; Direct-zol—Zymo for tissues) according to the manufacturer's instructions. cDNA synthesis was performed using a High Capacity cDNA Reverse Transcription Kit (Thermo Fisher) according to the manufacturer's instructions. Quantitative PCR was performed on a LightCycler 480 II (Roche) using primers and probes designed for the Universal Probe Library. Primers and probes used for human transcripts were ACTB: 5′-CCAACCGCGAGAAGATGA (SEQ ID NO:1), 5′-TCCATCACGATGCCAGTG (SEQ ID NO:2), Probe #64; TUBA: 5′-cttcgtctccgccatcag (SEQ ID NO:3), 5′-ttgccaatctggacacca (SEQ ID NO:4), Probe #58; ALOX5: 5′-[…] (SEQ ID NO:5), 5′-[…] (SEQ ID NO:6), Probe #64; ALOX5AP: 5′-ggtctgcggggctacttt (SEQ ID NO:7), 5′-[…] (SEQ ID NO:8), Probe #18; ALOX12: 5′-[…] (SEQ ID NO:9), 5′-agccaggtcgtcaggag (SEQ ID NO:10), Probe #32; ALOX15: 5′-[…] (SEQ ID NO:11), 5′-[…] (SEQ ID NO:12), Probe #76; ALOX15B: 5′-[…] (SEQ ID NO:13), 5′-actgggaggcgaagaagg (SEQ ID NO:14), Probe #51; AKR1C1: 5′-catgcctgtcctgggattt (SEQ ID NO:15), 5′-[…] (SEQ ID NO:16), Probe #49; AKR1C2: 5′-ctatgcgcctgcagaggt (SEQ ID NO:17), 5′-[…] (SEQ ID NO:18), Probe #31; AKR1C3: 5′-[…] (SEQ ID NO:19), 5′-[…] (SEQ ID NO:20), Probe #78; CYSLTR2: 5′-[…] (SEQ ID NO:21), 5′-[…] (SEQ ID NO:22), Probe #18; DPEP1: 5′-gacgtcctgaggctggtg (SEQ ID NO:23), 5′-[…] (SEQ ID NO:24), Probe #9 (SEQ ID NO:25), ELOVL2: 5′-[…] (SEQ ID NO:26), 5′-[…] (SEQ ID NO:27), Probe #53; ELOVL4: 5′-catttggcccatggattc (SEQ ID NO:28), 5′-[…] (SEQ ID NO:29), Probe #31; ELOVL5: 5′-cccttccatgcgtccata (SEQ ID NO:30), 5′-[…] (SEQ ID NO:31), Probe #31; EPHX2: 5′-ttctgctggacaccctgaa (SEQ ID NO:32), 5′-[…] (SEQ ID NO:33), Probe #45; GPX4: 5′-ttcccgtgtaaccagttcg (SEQ ID NO:34), 5′-[…] (SEQ ID NO:35), Probe #36; LTA4H: 5′-ctgctctcacggtccagtc (SEQ ID NO:36), 5′-[…] (SEQ ID NO:37), Probe #64; LTBR2: 5′-[…] (SEQ ID NO:38), 5′-[…] (SEQ ID NO:39), Probe #33; LTC4S: 5′-[…] (SEQ ID NO:40), 5′-[…] (SEQ ID NO:41), Probe #18; PTGDS: 5′-[…] (SEQ ID NO:42), 5′-[…] (SEQ ID NO:43), Probe #36; PTGES: 5′-agagatgcctgcccacag (SEQ ID NO:44), 5′-tggccaccacgtacatctt (SEQ ID NO:45), Probe #4; PTGES2: 5′-[…] (SEQ ID NO:46), 5′-[…] (SEQ ID NO:47), Probe #49; PTGES3 (SEQ ID NO:48), 5′-[…] (SEQ ID NO:49), 5′-[…] (SEQ ID NO:50), Probe #48; PTGIS: 5′-[…] (SEQ ID NO:51), 5′-[…] (SEQ ID NO:52), Probe #45; PTGR1: 5′-atgatggggcagcaagtg (SEQ ID NO:53), 5′-cccatcagaaatggagtgc (SEQ ID NO:54), Probe #64; PTGS1: 5′-[…] (SEQ ID NO:55), 5′-gtggtggtccatgttcctg (SEQ ID NO:56), Probe #81; PTGS2: 5′-gatccccagggctcaaac (SEQ ID NO:57), 5′-[…] (SEQ ID NO:58), Probe #61; TBXAS1: 5′-[…] (SEQ ID NO:59), 5′-tgcctcccgtgtgaatct (SEQ ID NO:60), Probe #73; AREG: 5′-[…] (SEQ ID NO:61), 5′-[…] (SEQ ID NO:62), Probe #73; CCL2: 5′-AGTCTCTGCCGCCCTTCT (SEQ ID NO:63), 5′-GTGACTGGGGCATTGATTG (SEQ ID NO:64), Probe #40; CCL27: 5′-[…] (SEQ ID NO:65), 5′-gctgggtggcagtaggaat (SEQ ID NO:66), Probe #18; CXCL1: 5′-[…] (SEQ ID NO:67), 5′-[…] (SEQ ID NO:68), Probe #52; HGF: 5′-[…] (SEQ ID NO:69), 5′-[…] (SEQ ID NO:70), Probe #49; ILIA: 5′-[…] (SEQ ID NO:71), 5′-[…] (SEQ ID NO:72), Probe #6; IL1B: 5′-[…] (SEQ ID NO:73), 5′-[…] (SEQ ID NO:74), Probe #78; IL6: 5′-[…] (SEQ ID NO:75), 5′-gaaggcagcaggcaacac (SEQ ID NO:76), Probe #45; IL8: 5′-[…] (SEQ ID NO:77), 5′-atggttccttccggtggt (SEQ ID NO:78), Probe #72; IL10: 5′-[…] (SEQ ID NO:79), 5′-[…] (SEQ ID NO:80), Probe #67; MMP3: 5′-[…] (SEQ ID NO:81), 5′-[…] (SEQ ID NO:82), Probe #36; PDGFA: 5′-[…] (SEQ ID NO:83), 5′-[…] (SEQ ID NO:84), Probe #80; VEGF: 5′-[…] (SEQ ID NO:85), 5′-[…] (SEQ ID NO:86), Probe #50; P21WAF1(CDKN1A): 5′-[…]

[1] = system: bleomycin-induced fibrosis; conditions: administration; Kida 2016, Genovese 2005; cited from earlier work
IL-6 secretion = assay: IL-6 ELISA on non-senescent cells treated with prostaglandins; type: cell-based, human; conditions: 10 μM, 10 days
Protocol: Human fetal lung fibroblasts (IMR-90) were cultured in Dulbecco's modified eagle medium (DMEM) supplemented with 10% FBS and penicillin/streptomycin. LL 29 (AnHa) cells were obtained from the ATCC and growth to confluence using the ATCC protocol, but were subcultured as described for IMR-90 before initiation of all experiments. Quiescence was induced by replacing culture media with media containing 0.2% FBS. MCF-7 and MDA-MB-231 breast cancer cells were cultured in RPMI supplemented with 10% FBS and penicillin/streptomycin. All cells were cultured at 3% O2, and used between 25 and 40 population doublings. All cells were mycoplasma free.
3×10^4 cells in 12-well plates were treated as indicated in the text, and cultured in 0.5-1 ml serum-free DMEM for 24 hr. CM were collected and clarified at 2,000×g for 10 min. Supernatants were transferred to a tube; cells were trypsinized and counted. CM (2.5 μl) were analyzed by bead-based ELISAs (AlphaLISA, Perkin-Elmer) as instructed by the manufacturer and normalized to cell number.

[2] = system: IMR-90 fibroblasts depleted of p53 by shRNA; assay: Prostaglandin treatment of p53-depleted (shp53) IMR-90 fibroblasts (Ki67, cleaved caspase 3); type: cell-based, human; conditions: shp53 cells, 3 days
Protocol: For EdU labeling, cells were cultured with EdU (10 μM) for 24 h, fixed in 4% buffered formalin for 10 min, washed in PBS, and permeabilized in 0.5% Triton X-100 for 30 min. Cells were treated as instructed by the manufacturer Life Technologies Cat #C10337). For immunofluorescence, cells were blocked in 10% normal goat serum for 30 min, washed, and incubated overnight in antibodies to Ki67 (Abcam) or cleaved caspase 3 (Cell Signaling). Cell were then washed, incubated in fluorescent secondary antibodies, and mounted using vectashield mounting medium with DAPI.

In the case of `CCCCC[C@H](O)/C=C/[C@H]1C(=O)C[C@H](O)[C@@H]1C/C=C\CCCC(=O)O` [PGD2, prostaglandin D2], the “levels of LMNB1 and cellular HMGB1” value (IMR-90 fibroblasts; 10 μM, 10 days) is reported as “reduced levels”, the p21 gene expression (IMR-90 fibroblasts; 10 μM, 10 days) is reported as “induced” and the senescence-associated beta-galactosidase (IMR-90 fibroblasts; 10 μM, 10 days) is reported as “induced”. For the same molecule, the p21 protein accumulation (IMR-90 fibroblasts; 10 μM, 10 days, immunoblot) was “induced”, the p53 stabilization (IMR-90 fibroblasts; 10 μM, 10 days, immunoblot) was “stabilized” and the “p53 phosphorylation or acetylation” value (IMR-90 fibroblasts; 10 μM, 10 days, western blot) was “without increasing”. The “expression of MMP3 and secretion of IL-6 on removal of the prostaglandin” value (IMR-90 fibroblasts; release after 7 days at 10 μM) was “reduced”, the bleomycin-induced fibrosis [1] was “attenuate” and the IL-6 secretion (IL-6 secretion) was “elevated”. The “apoptosis (positivity for cleaved caspase 3)” value [2] was “underwent apoptosis” and the “continued cell division (Ki67 positivity) after loss of p53” value [2] was “did not allow”.
